Several values for one entry are separate records, joined by “and”; a condition that tells them apart may be missing. Equal values may be shown once. Read-outs that look alike come from different tables or passages of the source.
What was measured:
[1] = test system: Capan-1 cells; assay: Cell proliferation (CTG); format: cell-based; conditions: Homo sapiens; Capan-1, CTG; (95% CI)
Experimental: Alternatively, cells were seeded in round-bottom ultra-low attachment 96-well plates, centrifuged at 1,000 rpm for 10 min to pellet the cells, and incubated overnight or up to 72 h to allow for 3D spheroid formation. […] Cell viability was determined by CellTiter-Glo 2.0 reagent (2D CTG) (Promega, G9243) or 3D CellTiter-Glo reagent (3D CTG) (Promega, G9683) according to the manufacturer’s protocols. Luminescence was detected using a SpectraMax M5 Plate Reader (Molecular Devices) of Perkin Elmer Enspire. Luminescence signal was normalized to vehicle-treated wells (normalized signal (%) = (luminescence (treated)/mean luminescence (vehicle)) × 100%). […] Data were plotted as log [inhibitor (M)], and a four-parameter sigmoidal concentration response model was fitted to the data to calculate EC50. […] Pa16C MEK1 mutant cells were evaluated by live-cell counting using Calcein AM and a SpectraMax i3X multi-mode detection platform (Molecular Devices). Growth percentages were calculated by normalizing the treated cell counts to their respective untreated cell counts.

[2] = test system: AsPC-1 and NCI-H441 cells; assay: pERK (MSD) and proliferation (CTG) in AsPC-1 and NCI-H441 cells, CYPA inhibitor co-treatment or PPIA KO; format: cell-based, human; conditions: for Proliferation, RMC-7977 with or without CYPA inhibitor (panel title not shown): ASPC1, RMC-7977 alone;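 as to Proliferation inhibition with CYPA inhibitor competition: luminescence as % of CYPA inhibitor-only control with 3 mM sanglifehrin A competitor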

In the case of CCn1c(-c2cc(N3CCN(C4CC4)CC3)cnc2[C@H](C)OC)c2c3cc(ccc31)-c1csc(n1)C[C@H](NC(=O)[C@H]1[C@@H]3COC[C@@H]31)C(=O)N1CCC[C@H](N1)C(=O)OCC(C)(C)C2 [RMC-7977], the EC50 [1] is reported as 2.2 nM, the “Proliferation inhibition with CYPA inhibitor competition” value (shortened to “Proliferation inhibition”) ([2]; ASPC1, RMC-7977 0.0152 nM) is reported as 90.9654 and the “pERK signal remaining (% of control) with CYPA inhibitor competition” value ([2]; ASPC1, RMC-7977 0.0152 nM) is reported as 120.616 and 135.308 and 125.91 and 115.107. The “Proliferation inhibition” value ([2]; ASPC1, RMC-7977 0.0457 nM) was 85.8573, the “pERK signal remaining (% of control) with CYPA inhibitor competition” value ([2]; ASPC1, RMC-7977 0.0457 nM) was 139.301 and 149.714 and 121.136 and 102.253 and the “Proliferation inhibition” value ([2]; ASPC1, RMC-7977 0.41 nM) was 72.6185 and 81.3976. For the same molecule, the “pERK signal remaining (% of control) with CYPA inhibitor competition” value ([2]; ASPC1, RMC-7977 0.41 nM) was 110.343 and 126.372 and 94.9104 and 97.1292, the “Proliferation inhibition” value ([2]; ASPC1, RMC-7977 3.70 nM) was 35.3653 and 35.6028 and the “Proliferation inhibition” value ([2]; ASPC1, RMC-7977 11.11 nM) was 15.7797 and 21.3117. The “Proliferation inhibition” value ([2]; ASPC1, RMC-7977 33.33 nM) was 8.746 and 8.58, the “Proliferation inhibition” value ([2]; ASPC1, RMC-7977 100.00 nM) was 4.002 and 7.934 and the “Proliferation, RMC-7977 with or without CYPA inhibitor (panel title not shown)” value ([2]; 0.0152 nM, 15.2 pM) was 91.3484. The “Proliferation, RMC-7977 with or without CYPA inhibitor (panel title not shown)” value ([2]; 0.0457 nM, 45.7 pM) was 92.4729, the “Proliferation, RMC-7977 with or without CYPA inhibitor (panel title not shown)” value ([2]; 0.41 nM, 0.00041 µM) was 80.9316 and the “Proliferation, RMC-7977 with or without CYPA inhibitor (panel title not shown)” value ([2]; 3.70 nM, 0.0037 µM) was 50.3479. For the same molecule, the “Proliferation, RMC-7977 with or without CYPA inhibitor (panel title not shown)” value ([2]; 11.11 nM, 0.01111 µM) was 24.3804, the “Proliferation, RMC-7977 with or without CYPA inhibitor (panel title not shown)” value ([2]; 33.33 nM, 0.03333 µM) was 12.3077 and the “Proliferation, RMC-7977 with or without CYPA inhibitor (panel title not shown)” value ([2]; 100.00 nM, 0.1 µM) was 7.228. The “Proliferation, RMC-7977 with or without CYPA inhibitor (panel title not shown)” value ([2]; 300.00 nM, 0.3 µM) was 13.3948, the “Proliferation, RMC-7977 with or without CYPA inhibitor (panel title not shown)” value ([2]; […], 5.08 pM) was 94.1273 and the activity at 0.0037 µM ([2]; Homo sapiens, ASPC1, read-out: Proliferation inhibition in PPIA KO cells treated with RMC-7977, AsPC-1, 3.70 nM) was 33%. For the same molecule, the activity at 0.01111 µM ([2]; Homo sapiens, ASPC1, read-out: Proliferation inhibition in PPIA KO cells treated with RMC-7977, AsPC-1, 11.11 nM) was 17.6%, the activity at 0.03333 µM ([2]; Homo sapiens, ASPC1, read-out: Proliferation inhibition in PPIA KO cells treated with RMC-7977, AsPC-1, 33.33 nM) was 8.78% and the activity at 15.2 pM ([2]; Homo sapiens, ASPC1, read-out: Proliferation, RMC-7977 with or without CYPA inhibitor (panel title not shown), ASPC1, RMC-7977 alone, 0.0152 nM) was 102%. It also gave an activity at 45.7 pM ([2]; Homo sapiens, ASPC1, read-out: Proliferation, RMC-7977 with or without CYPA inhibitor (panel title not shown), ASPC1, RMC-7977 alone, 0.0457 nM) of 92.6%, an activity at 0.00041 µM ([2]; Homo sapiens, ASPC1, read-out: Proliferation, RMC-7977 with or without CYPA inhibitor (panel title not shown), ASPC1, RMC-7977 alone, 0.41 nM) of 84.8% and an activity at 0.0037 µM ([2]; Homo sapiens, ASPC1, read-out: Proliferation, RMC-7977 with or without CYPA inhibitor (panel title not shown), ASPC1, RMC-7977 alone, 3.70 nM) of 47.4%. The activity at 0.01111 µM ([2]; Homo sapiens, ASPC1, read-out: Proliferation, RMC-7977 with or without CYPA inhibitor (panel title not shown), ASPC1, RMC-7977 alone, 11.11 nM) was 29.5%, the activity at 0.03333 µM ([2]; Homo sapiens, ASPC1, read-out: Proliferation, RMC-7977 with or without CYPA inhibitor (panel title not shown), ASPC1, RMC-7977 alone, 33.33 nM) was 12.8% and the activity at 0.1 µM ([2]; Homo sapiens, ASPC1, read-out: Proliferation, RMC-7977 with or without CYPA inhibitor (panel title not shown), ASPC1, RMC-7977 alone, 100.00 nM) was 7.14%. For the same molecule, the activity at 0.3 µM ([2]; Homo sapiens, ASPC1, read-out: Proliferation, RMC-7977 with or without CYPA inhibitor (panel title not shown), ASPC1, RMC-7977 alone, 300.00 nM) was 14.9%, the activity at 5.08 pM ([2]; Homo sapiens, ASPC1, read-out: Proliferation, RMC-7977 with or without CYPA inhibitor (panel title not shown), ASPC1, RMC-7977 alone, […]) was 101% and the activity at 0.00041 µM ([2]; Homo sapiens, ASPC1, read-out: pERK inhibition in PPIA KO cells treated with RMC-7977, AsPC-1, 0.41 nM) was 85.8%. It also gave an activity at 5.08 pM ([2]; Homo sapiens, ASPC1, read-out: pERK inhibition in PPIA KO cells treated with RMC-7977, AsPC-1, […]) of 109%, an activity at 0.0037 µM ([2]; Homo sapiens, ASPC1, read-out: pERK inhibition in PPIA KO cells treated with RMC-7977, AsPC-1 PPIA KO, 3.70 nM) of 109% and an activity at 0.01111 µM ([2]; Homo sapiens, ASPC1, read-out: pERK inhibition in PPIA KO cells treated with RMC-7977, AsPC-1 PPIA KO, 11.11 nM) of 110%. For the same molecule, the activity at 15.2 pM ([2]; Homo sapiens, NCI-H441, read-out: Proliferation inhibition in PPIA KO cells treated with RMC-7977, NCI-H441, 0.0152 nM) was 124%, the activity at 45.7 pM ([2]; Homo sapiens, NCI-H441, read-out: Proliferation inhibition in PPIA KO cells treated with RMC-7977, NCI-H441, 0.0457 nM) was 124% and the activity at 0.0037 µM ([2]; Homo sapiens, NCI-H441, read-out: Proliferation inhibition in PPIA KO cells treated with RMC-7977, NCI-H441, 3.70 nM) was 33%. It also gave an activity at 0.01111 µM ([2]; Homo sapiens, NCI-H441, read-out: Proliferation inhibition in PPIA KO cells treated with RMC-7977, NCI-H441, 11.11 nM) of 24.4% and an activity at 0.03333 µM ([2]; Homo sapiens, NCI-H441, read-out: Proliferation inhibition in PPIA KO cells treated with RMC-7977, NCI-H441, 33.33 nM) of 22.2%.

Reference: article PMC11111408, “Concurrent inhibition of oncogenic and wild-type RAS-GTP for cancer therapy” (Nature, 2024)
